Measurements published in US20090269406A1, “Therapeutic uses of biocompatible biogel compositions” (priority 2008, published 2009).
Peptide text beside a SMILES is read from it. * marks the point of attachment. Dansyl = CN(C)c1cccc2c(S(=O)(=O)*)cccc12

Assay: Effect of heparin-binding peptides on cellular viability (CellTiter 96 AQueous colorimetric metabolic assay)
Details: mouse, 3T3 fibroblasts
Protocol: 3T3 fibroblasts were incubated with various doses of W-PBD1 () and dG-PBD1 (▪) peptide (n=3). Viability was measured using a colorimetric metabolic assay based on the reduction of a tetrazolium salt into a formazan product.
In one example to show toxicity of two heparin binding peptides, 3T3 fibroblasts were treated with various concentrations of two different heparin binding peptides. Cell viability was assessed using the CellTiter 96® AQueous reagent (Promega, Madison, Wis.) after 1 hour at 37° C. in a humidified incubator with 5% CO2, following the manufacturer's protocol, incorporated by reference herein. Briefly, 3T3 fibroblasts were cultured at 37° C. in a humidified incubator with 5% CO2 using Dulbecco's modified Eagle Medium (DMEM) containing 10% fetal bovine serume (FBS), pen/strep, and 2 mM glutamine (Invitrogen). Serial dilutions of dG-PGB1 and W-PBD-1 using PBS as the diluent, and 75 μl of the dilutions were transferred in triplicate into the wells of a 96-well microtiter plate. […] Finally, the absorbance at 490 mm was measured with a microplate spectrophotometer. […] The amount of viable cells was determined by subtracting the absorbance readings of media containing blank wells from every other well and comparing the ratio of the absorbance reading for each sample with that of the positive control.

SMILES | CC50 at 1 h
CC(C)C[C@H](NC(=O)[C@H](CCCCN)NC(=O)[C@H](C)NC(=O)[C@H](Cc1ccccc1)NC(=O)[C@H](C)NC(=O)[C@H](CCCCN)NC(=O)[C@@H](N)Cc1c[nH]c2ccccc12)C(=O)N[C@@H](C)C(=O)N[C@@H](C)C(=O)N[C@@H](CCCNC(=N)N)C(=O)N[C@@H](CC(C)C)C(=O)N[C@@H](Cc1ccc(O)cc1)C(=O)N[C@@H](CCCNC(=N)N)C(=O)N[C@@H](CCCCN)C(=O)N[C@@H](C)C(=O)NCC(=O)N[C@@H](CS)C(=O)O [W-PBD1, WKAFAKLAARLYRKAGC] (H-WKAFAKLAARLYRKAGC-OH; N-terminus and C-terminus assumed) | 58.1 ± 7.3 µM
CC(C)C[C@H](NC(=O)[C@H](CCCCN)NC(=O)[C@H](C)NC(=O)[C@H](Cc1ccccc1)NC(=O)[C@H](C)NC(=O)[C@H](CCCCN)NC(=O)CNS(=O)(=O)c1cccc2c(N(C)C)cccc12)C(=O)N[C@@H](C)C(=O)N[C@@H](C)C(=O)N[C@@H](CCCNC(=N)N)C(=O)N[C@@H](CC(C)C)C(=O)N[C@@H](Cc1ccc(O)cc1)C(=O)N[C@@H](CCCNC(=N)N)C(=O)N[C@@H](CCCCN)C(=O)N[C@@H](C)C(=O)NCC(=O)N[C@@H](CS)C(=O)O [dG-PBD1, dansyl-GKAFAKLAARLYRKAGC] (Dansyl-GKAFAKLAARLYRKAGC-OH) | 19.3 ± 1.1 µM
